We go through 2 compounds from patent publication US20240342159A1, “VALBENAZINE FOR USE IN THE ADD-ON TREATMENT OF SCHIZOPHRENIA” (Neurocrine Biosciences, Inc., priority 2021, published 2024).

A value given as a limit tells only on which side of the number the result lay.

The test system of one data set is adults with TD. The data set can be described thus: adverse reactions in 3 placebo-controlled studies in adults with tardive dyskinesia. The settings on record: 6-week treatment. It is filed as in vivo, human.
Data set [1] is described as follows: embryo/fetal development study, rabbits. Format: in vivo, rabbit. The settings on record: rabbit, in vivo. The procedure:
(§1) The NOAEL for embryo/fetal development in rats and rabbits was 15 mg/kg/day and 50 mg/kg/day, respectively. […] Valbenazine was negative in genotoxicity assays (in vitro Ames and chromosomal aberration assays and an in vivo rat micronucleus test).

Another data set relates to rabbits. As to the kind of experiment: embryo/fetal development study, rabbits. It is filed as in vivo, rabbit. The protocol: as §1
Another data set concerns rat. As to the kind of experiment: in vivo rat micronucleus test. The procedure: as §1
For another data set, the target named is P-glycoprotein (Homo sapiens, UniProt P08183). As to the kind of experiment: P-glycoprotein inhibition. It is filed as in vitro ADME. The settings on record: only at concentrations that could be achieved in the gastrointestinal tract.
Chain of P-glycoprotein (P08183 whole entry): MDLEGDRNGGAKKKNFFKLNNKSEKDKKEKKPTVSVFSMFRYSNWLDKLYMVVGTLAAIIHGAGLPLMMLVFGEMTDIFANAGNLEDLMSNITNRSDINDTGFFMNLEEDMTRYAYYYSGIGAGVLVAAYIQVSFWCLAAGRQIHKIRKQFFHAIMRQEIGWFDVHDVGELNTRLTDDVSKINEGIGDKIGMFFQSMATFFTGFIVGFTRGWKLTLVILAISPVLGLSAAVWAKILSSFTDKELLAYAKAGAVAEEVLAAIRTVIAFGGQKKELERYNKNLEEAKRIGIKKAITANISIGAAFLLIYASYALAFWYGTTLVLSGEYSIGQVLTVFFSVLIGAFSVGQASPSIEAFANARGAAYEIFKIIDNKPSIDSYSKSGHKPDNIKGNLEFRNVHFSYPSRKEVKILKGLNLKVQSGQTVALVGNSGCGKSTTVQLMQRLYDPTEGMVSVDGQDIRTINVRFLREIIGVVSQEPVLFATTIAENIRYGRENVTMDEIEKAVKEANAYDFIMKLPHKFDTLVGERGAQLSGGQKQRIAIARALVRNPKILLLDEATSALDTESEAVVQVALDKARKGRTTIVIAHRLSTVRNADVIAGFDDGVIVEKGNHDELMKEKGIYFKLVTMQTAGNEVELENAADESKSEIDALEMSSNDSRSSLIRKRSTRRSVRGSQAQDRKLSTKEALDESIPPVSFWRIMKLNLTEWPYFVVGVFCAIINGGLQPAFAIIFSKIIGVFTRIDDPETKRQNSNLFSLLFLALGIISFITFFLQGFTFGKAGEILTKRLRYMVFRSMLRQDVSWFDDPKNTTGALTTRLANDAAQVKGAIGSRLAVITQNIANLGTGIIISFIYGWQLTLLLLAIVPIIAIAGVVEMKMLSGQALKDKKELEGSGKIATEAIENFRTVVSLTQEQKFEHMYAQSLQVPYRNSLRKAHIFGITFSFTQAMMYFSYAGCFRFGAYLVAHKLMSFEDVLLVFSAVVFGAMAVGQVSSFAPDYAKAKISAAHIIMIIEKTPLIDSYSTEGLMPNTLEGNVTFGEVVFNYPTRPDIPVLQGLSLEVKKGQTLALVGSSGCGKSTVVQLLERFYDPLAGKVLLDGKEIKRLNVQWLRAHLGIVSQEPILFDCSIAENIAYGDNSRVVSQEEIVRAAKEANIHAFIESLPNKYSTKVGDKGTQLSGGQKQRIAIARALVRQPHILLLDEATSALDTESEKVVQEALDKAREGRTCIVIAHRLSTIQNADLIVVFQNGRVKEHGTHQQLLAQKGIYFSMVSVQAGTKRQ
Data set [2] is described as follows: in vitro Ames genotoxicity assay. It is filed as cell-based. The protocol:
as §1

A further data set concerns dogs. The data set can be described thus: repeat-dose nonclinical toxicology study, dog. Format: in vivo.
Data set [3] concerns rats. The data set can be described thus: carcinogenicity study, rats. It is filed as in vivo, rat.
A short description of data set [4]: in vitro chromosomal aberration assay. Format: cell-based. The procedure: as §1
Data set [5] is described as follows: metabolism of valbenazine by hydrolysis. It is filed as in vitro ADME.
In data set [6] the test system is valbenazine-treated subjects. As to the kind of experiment: serious adverse events and deaths in the entire valbenazine clinical development program. It is filed as in vivo, human. The text has this: (§2) Common treatment-emergent adverse events (TEAEs) in pediatric subjects with TS with incidence >5% in the valbenazine treatment groups and with a higher incidence than placebo include headache, somnolence, sedation, upper respiratory tract infection, insomnia, fatigue, vomiting, and suicidal ideation. In the entire valbenazine clinical development program as of 10 Apr. 2021, treatment-emergent serious adverse events (SAEs) occurring in 3 or more valbenazine-treated subjects each were schizophrenia, suicidal ideation, chronic obstructive pulmonary disease, syncope, abdominal pain, depression, mental status changes, and schizoaffective disorder.
Ten deaths have been reported in completed and ongoing valbenazine studies conducted by NBI: 9 occurred in adult subjects with TD and 1 adult subject with HD. Eight deaths occurred in subjects taking valbenazine, 1 occurred in a subject taking placebo, and 1 remains blinded.

In the next data set the test system is hemizygous Tg.rasH2 mice. As to the kind of experiment: carcinogenicity study, hemizygous Tg.rasH2 mice. It is filed as in vivo, mouse.
Data set [7] relates to rats. The data set can be described thus: repeat-dose nonclinical toxicology study, rat. Format: in vivo.
In another data set the test system is QT interval. The data set can be described thus: QT interval prolongation in clinical use. It is filed as in vivo, human.
Data set [8] in a line: central nervous system, respiratory and cardiovascular safety pharmacology studies. Format: in vivo. The following applies: compared with human exposure.
For a further data set, the system named is mice. The data set can be described thus: repeat-dose nonclinical toxicology study, mouse. Format: in vivo.
The nature of data set [9]: clinical safety signals (cardiovascular, laboratory, vital signs, serum prolactin, suicidality). Format: in vivo, human.
Data set [10] deals with cytochrome P450 (CYP) enzyme. As to the kind of experiment: cytochrome P450 (CYP) enzyme inhibition or induction. Format: in vitro ADME. The settings on record: at pharmacologically relevant concentrations.
In data set [11] the test system is pediatric subjects with TS. As to the kind of experiment: treatment-emergent adverse events in pediatric subjects with Tourette Syndrome. The following applies: higher incidence than placebo. Format: in vivo, human.
Source text: as §2

The nature of data set [12]: embryo/fetal development study, rats. It is filed as in vivo, rat. The following applies: rat, in vivo. The protocol: as §1
In data set [13] the test system is rats. The data set can be described thus: embryo/fetal development study, rats. It is filed as in vivo, rat. The protocol:
as §1

Data set [14] relates to panel of other drug transporters. As to the kind of experiment: inhibition of a panel of other drug transporters. Format: in vitro ADME.
In another data set the test system is rat fertility. The data set can be described thus: rat fertility study. The following applies: 10 mg/kg/day. Format: in vivo.
The next data set is described as follows: rat fertility study. The settings on record: rat, in vivo. Format: in vivo.
The target in a further data set is CYP2D6 (Homo sapiens, UniProt P10635). As to the kind of experiment: metabolism of NBI-98782 by CYP2D6. It is filed as in vitro ADME.
Chain of CYP2D6 (P10635 whole entry): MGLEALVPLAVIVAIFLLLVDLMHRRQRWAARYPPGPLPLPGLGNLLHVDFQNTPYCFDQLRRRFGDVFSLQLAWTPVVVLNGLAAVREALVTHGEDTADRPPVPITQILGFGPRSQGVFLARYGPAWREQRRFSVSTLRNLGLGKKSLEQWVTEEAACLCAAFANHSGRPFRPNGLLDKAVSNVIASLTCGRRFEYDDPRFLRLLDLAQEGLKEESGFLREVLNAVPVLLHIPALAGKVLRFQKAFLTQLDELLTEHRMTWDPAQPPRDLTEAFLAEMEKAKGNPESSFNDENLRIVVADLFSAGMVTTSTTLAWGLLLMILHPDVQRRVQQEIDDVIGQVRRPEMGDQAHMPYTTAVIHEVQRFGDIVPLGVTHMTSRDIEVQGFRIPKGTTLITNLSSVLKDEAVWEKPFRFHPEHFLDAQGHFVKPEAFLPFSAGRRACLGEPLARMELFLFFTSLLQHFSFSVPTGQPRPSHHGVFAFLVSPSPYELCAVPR

Turning to `COc1cc2c(cc1OC)[C@H]1C[C@@H](OC(=O)[C@@H](N)C(C)C)[C@H](CC(C)C)CN1CC2` [Valbenazine, L-valine, (2R,3R,11bR)-1,3,4,6,7,11b-hexahydro-9,10-dimethoxy-3-(2-methylpropyl)-2H-benzo[a]quinolizin-2-yl ester], in the data set with adults with TD, the “incidence of anticholinergic effects (dry mouth, constipation, disturbance in attention, vision blurred, urinary retention)” value turned out to be 5.4%. In the data set with adults with TD, the “incidence of balance disorders/fall (fall, gait disturbance, dizziness, balance disorder)” value is reported as 4.1%. Moreover, the “incidence of somnolence (somnolence, fatigue, sedation)” value in the data set on adults with TD is 10.9%. Besides, the no-observed-adverse-effect level (NOAEL) was 50 mg/kg/day in data set [1], 15 mg/kg/day in data set [12] and 3 mg/kg/day in the data set “rat fertility study”. The teratogenicity entry in the data set with rabbits and with rats [13] was “no evidence of teratogenicity” in each case. For the same compound, the “genotoxicity, rat micronucleus test” value with rat is recorded as “negative”. Also, the “inhibition of P-glycoprotein” value against P-glycoprotein was “moderate inhibitor”. Further, the “genotoxicity, Ames assay” value in data set [2] is “negative”. Further, the entries for the “dose with no adverse effects, repeat-dose toxicology” value in the data set on dogs, in the data set on rats [7] and with mice were 15 mg/kg/day, 3 mg/kg/day and 60 mg/kg/day, respectively. Moreover, the “tumors in carcinogenicity study” value in the data set with rats [3] and with hemizygous Tg.rasH2 mice was “did not increase tumors” in each case. Moreover, in [4], the “genotoxicity, chromosomal aberration assay” value is recorded as “negative”. The metabolic pathway entry in data set [5] is given as “metabolized by hydrolysis to NBI-98782”. Also, the “relationship of deaths to study drug” value in data set [6] (all ten deaths) was “not related or unlikely related”. Also, in [6] (of ten deaths in completed and ongoing studies), the “deaths in subjects taking valbenazine” value was “Eight”. Further, in the data set on QT interval (at concentrations expected with recommended dosing), the “degree of QT prolongation” value is recorded as “not clinically significant”. For the same compound, the “QT prolongation with higher valbenazine concentrations” value in the data set with QT interval (subjects taking a strong CYP2D6 or CYP3A4 inhibitor, or CYP2D6 poor metabolizers) is reported as “QT prolongation clinically significant”. Also, the “systemic exposures at the NOAEL in safety pharmacology studies” value in [8] is “above those achieved at the highest proposed therapeutic dose in humans”. The “cardiovascular, laboratory or vital sign related safety signals” value in data set [9] (human, in vivo) is “No cardiovascular, laboratory, or vital sign related safety signals”. The suicidality result in data set [9] (human, in vivo) was “does not appear to increase suicidality”. Further, in data set [9] (mean changes with placebo considerably smaller), the serum prolactin result is on record as “Increases in serum prolactin above normal laboratory ranges”. In addition, in data set [10], the “CYP enzyme inhibition or induction” value is reported as “little or no cytochrome P450 (CYP) enzyme inhibition or induction”. Further, the “incidence of common TEAEs: headache, somnolence, sedation, upper respiratory tract infection, insomnia, fatigue, vomiting, suicidal ideation” value in data set [11] is recorded as above 5%. Also, the “inhibition of a panel of other drug transporters” value in data set [14] was “not an inhibitor”. Besides, the “effect on rat fertility” value in the data set with rat fertility is on record as “modest negative effect”.
As for “(+)-α-3-isobutyl-9,10-dimethoxy-1,3,4,6,7,11b-hexahydro-2H-pyrido[2,1-a]isoquinolin-2-ol [NBI-98782]”, the “systemic exposures at the NOAEL in safety pharmacology studies” value in data set [8] is given as “above those achieved at the highest proposed therapeutic dose in humans”. Also, the subsequent metabolism result at CYP2D6 is on record as “metabolized in part by CYP2D6”.

The NOAEL is the highest dose or exposure tested at which no adverse effect was seen.
